Like-named read-outs stand apart in the source and are kept apart here.
Key:
Format in all cases: cell-based
[1] = biological target: T1, hGIPR (Homo sapiens, UniProt P48546); assay: Functional cAMP formation (HTRF) in HEK-293 clonal cells expressing hGIPR, 0.1% bovine casein, without or with 1.0% human serum albumin; conditions: for EC50: geometric mean
T1 construct: expressed in transfected cells
T1 sequence (P48546 22-466): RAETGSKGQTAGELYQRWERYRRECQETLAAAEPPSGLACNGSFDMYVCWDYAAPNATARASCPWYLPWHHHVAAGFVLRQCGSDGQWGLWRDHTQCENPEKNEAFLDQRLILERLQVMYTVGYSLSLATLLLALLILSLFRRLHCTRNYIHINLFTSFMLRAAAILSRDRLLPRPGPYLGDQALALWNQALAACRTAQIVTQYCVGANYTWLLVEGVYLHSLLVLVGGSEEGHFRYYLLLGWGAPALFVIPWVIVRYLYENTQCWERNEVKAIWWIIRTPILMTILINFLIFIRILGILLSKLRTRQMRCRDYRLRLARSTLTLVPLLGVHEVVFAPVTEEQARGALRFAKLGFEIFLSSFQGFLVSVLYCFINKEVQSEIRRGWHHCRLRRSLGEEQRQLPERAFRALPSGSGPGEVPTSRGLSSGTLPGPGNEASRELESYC
Summary of the method: (§1)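 Cells were stimulated with peptide for 30 min at 37° C, then intracellular cAMP was measured by competitive HTRF (665/620 nm ratio) and converted to nM using a cAMP standard curve. Relative EC50 and Emax came from four-parameter logistic fits of percent maximal response against peptide concentration.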

[2] = biological target: T2, hGCGR (Homo sapiens, UniProt P47871); assay: Functional cAMP formation (HTRF) in HEK-293 clonal cells expressing hGCGR, 0.1% bovine casein, without or with 1.0% human serum albumin
T2 construct: expressed in transfected cells
T2 sequence (P47871 26-477): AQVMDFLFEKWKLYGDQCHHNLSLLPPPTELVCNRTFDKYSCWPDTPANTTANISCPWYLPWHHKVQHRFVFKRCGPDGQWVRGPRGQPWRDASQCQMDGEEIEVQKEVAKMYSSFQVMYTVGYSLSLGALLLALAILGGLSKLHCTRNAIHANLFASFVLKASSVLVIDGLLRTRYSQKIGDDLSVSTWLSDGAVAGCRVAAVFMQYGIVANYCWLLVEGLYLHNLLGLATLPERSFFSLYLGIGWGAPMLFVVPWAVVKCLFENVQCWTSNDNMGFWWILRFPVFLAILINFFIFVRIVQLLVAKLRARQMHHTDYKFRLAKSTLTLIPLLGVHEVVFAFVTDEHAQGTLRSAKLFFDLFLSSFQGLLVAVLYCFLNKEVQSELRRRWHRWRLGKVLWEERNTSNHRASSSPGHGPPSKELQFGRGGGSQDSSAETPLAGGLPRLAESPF
Summary of the method: as §1

[3] = biological target: hGLP-1R (Homo sapiens, UniProt P43220); assay: Functional cAMP formation (HTRF) in HEK-293 clonal cells expressing hGLP-1R, 0.1% bovine casein, without or with 1.0% human serum albumin; parameters: expressed in transfected cells; conditions: for EC50: geometric mean
hGLP-1R, sequence (P43220 24-463): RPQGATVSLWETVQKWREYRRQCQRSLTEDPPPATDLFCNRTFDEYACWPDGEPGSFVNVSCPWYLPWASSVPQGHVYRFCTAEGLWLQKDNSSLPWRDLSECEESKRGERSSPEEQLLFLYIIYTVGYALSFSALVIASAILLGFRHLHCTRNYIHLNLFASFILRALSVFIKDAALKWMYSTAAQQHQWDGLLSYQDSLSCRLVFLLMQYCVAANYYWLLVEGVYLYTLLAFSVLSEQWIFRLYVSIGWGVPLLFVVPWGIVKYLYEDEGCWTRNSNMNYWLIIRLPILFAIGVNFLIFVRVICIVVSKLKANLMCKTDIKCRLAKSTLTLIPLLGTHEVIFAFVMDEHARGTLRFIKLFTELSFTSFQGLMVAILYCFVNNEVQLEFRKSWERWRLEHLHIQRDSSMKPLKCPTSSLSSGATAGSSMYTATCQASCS
Summary of the method: as §1

[4] = HEK293, percent of maximal response to GIP(1-42)NH2, 37° C., 0.1% bovine casein, arithmetic mean, read-out: hGIPR Emax, % ± SEM
[5] = cAMP, incubated at 37° C., 0.1% bovine casein (no human serum albumin), geometric mean, read-out: hGCGR EC50, nM (SEM, n)

CCCCCCCCCCCC(=O)N[C@@H](CCC(=O)NCCOCCOCC(=O)NCCOCCOCC(=O)NCCCC[C@H](NC(=O)CNC(=O)CNC(=O)[C@H](CCC(=O)O)NC(=O)[C@@H](NC(=O)[C@H](CC(C)C)NC(=O)[C@](C)(Cc1ccc(O)cc1)NC(=O)[C@@H](CCC(=O)O)NC(=O)[C@@H](NC(=O)[C@H](Cc1ccccc1)NC(=O)[C@H](CCC(=O)O)NC(=O)C(C)(C)NC(=O)[C@H](CCC(N)=O)NC(=O)[C@H](C)NC(=O)[C@H](CCCCNC(=O)COCCOCCNC(=O)COCCOCCNC(=O)CC[C@H](NC(=O)CCCCCCCCCCC)C(=O)O)NC(=O)[C@H](CCCN)NC(=O)[C@H](CC(=O)O)NC(=O)[C@H](CC(C)C)NC(=O)[C@](C)(CC(C)C)NC(=O)[C@@H](NC(=O)C(C)(C)NC(=O)[C@@H](NC(=O)[C@H](CC(=O)O)NC(=O)[C@H](CO)NC(=O)[C@@H](NC(=O)[C@](C)(Cc1ccccc1F)NC(=O)[C@@H](NC(=O)CNC(=O)[C@H](CCC(=O)O)NC(=O)C(C)(C)NC(=O)[C@@H](N)Cc1ccc(O)cc1)[C@@H](C)O)[C@@H](C)O)C(C)C)[C@@H](C)CC)[C@@H](C)CC)[C@@H](C)CC)C(=O)N[C@@H](CO)C(=O)N[C@@H](CO)C(=O)NCC(=O)N[C@@H](C)C(=O)N1CCC[C@H]1C(=O)N1CCC[C@H]1C(=O)N1CCC[C@H]1C(=O)N[C@@H](CO)C(N)=O)C(=O)O [Example 175]
Emax [1, 4]: 100% | EC50 [2, 5]: > 9950 nM | Emax ([3]; HEK293, percent of maximal response to GLP-1(7-36)NH2, 37° C., 0.1% bovine casein, arithmetic mean, read-out: hGLP-1R Emax, % ± SEM): 91.1% | EC50 ([3]; cAMP, incubated at 37° C., 0.1% bovine casein (no human serum albumin), read-out: hGLP-1R EC50, nM (SEM, n)): 0.227 nM

CC[C@H](C)[C@H](NC(=O)[C@H](CCCN)NC(=O)[C@H](CC(=O)O)NC(=O)[C@H](CC(C)C)NC(=O)[C@](C)(CC(C)C)NC(=O)[C@@H](NC(=O)C(C)(C)NC(=O)[C@H](Cc1ccc(O)cc1)NC(=O)[C@H](CC(=O)O)NC(=O)[C@H](CO)NC(=O)[C@@H](NC(=O)[C@](C)(Cc1ccccc1F)NC(=O)[C@@H](NC(=O)CNC(=O)[C@H](CCC(=O)O)NC(=O)C(C)(C)NC(=O)[C@@H](N)Cc1ccc(O)cc1)[C@@H](C)O)[C@@H](C)O)[C@@H](C)CC)C(=O)N[C@@H](C)C(=O)N[C@@H](CCC(N)=O)C(=O)NC(C)(C)C(=O)N[C@@H](CCC(=O)O)C(=O)N[C@@H](Cc1ccccc1)C(=O)N[C@H](C(=O)N[C@@H](CCCCNC(=O)COCCOCCNC(=O)COCCOCCNC(=O)CC[C@H](NC(=O)CCCCCCCCCOc1ccc(C(=O)O)cc1)C(=O)O)C(=O)N[C@@](C)(Cc1ccc(O)cc1)C(=O)N[C@@H](CC(C)C)C(=O)N[C@H](C(=O)N[C@@H](CCCCNC(=O)COCCOCCNC(=O)COCCOCCNC(=O)CC[C@H](NC(=O)CCCCCCCCCOc1ccc(C(=O)O)cc1)C(=O)O)C(=O)NCC(=O)NCC(=O)N1CCC[C@H]1C(=O)N[C@@H](CO)C(=O)N[C@@H](CO)C(=O)NCC(=O)N[C@@H](C)C(=O)N1CCC[C@H]1C(=O)N1CCC[C@H]1C(=O)N1CCC[C@H]1C(=O)N[C@@H](CO)C(N)=O)[C@@H](C)CC)[C@@H](C)CC [Example 239]
Emax ([1]; HEK293, read-out: hGIPR Emax, % ± SEM, 0.1% bovine casein and 1.0% human serum albumin, 37° C., percent of maximal response to GIP(1-42)NH2): 89.1% | EC50 ([1]; hGIPR EC50, nM (SEM, n), cAMP, incubated at 37° C., 0.1% bovine casein (no human serum albumin)): 0.0328 nM | EC50 ([2]; hGCGR EC50, nM (SEM, n), 0.1% bovine casein and 1.0% human serum albumin, 37° C., geometric mean): > 9950 nM | EC50 ([2]; hGCGR EC50, nM (SEM, n), cAMP, incubated at 37° C., 0.1% bovine casein (no human serum albumin), geometric mean): > 9950 nM | Emax ([3]; HEK293, read-out: hGLP-1R Emax, % ± SEM, 0.1% bovine casein and 1.0% human serum albumin, 37° C., percent of maximal response to GLP-1(7-36)NH2): 109% | EC50 ([3]; hGLP-1R EC50, nM (SEM, n), cAMP, incubated at 37° C., 0.1% bovine casein (no human serum albumin)): 0.546 nM

CC[C@H](C)[C@H](NC(=O)[C@H](CCCN)NC(=O)[C@H](CC(=O)O)NC(=O)[C@H](CC(C)C)NC(=O)[C@](C)(CC(C)C)NC(=O)[C@@H](NC(=O)C(C)(C)NC(=O)[C@H](Cc1ccc(O)cc1)NC(=O)[C@H](CC(=O)O)NC(=O)[C@H](CO)NC(=O)[C@@H](NC(=O)[C@](C)(Cc1ccccc1F)NC(=O)[C@@H](NC(=O)CNC(=O)[C@H](CCC(=O)O)NC(=O)C(C)(C)NC(=O)[C@@H](N)Cc1ccc(O)cc1)[C@@H](C)O)[C@@H](C)O)[C@@H](C)CC)C(=O)N[C@@H](C)C(=O)N[C@@H](CCC(N)=O)C(=O)NC(C)(C)C(=O)N[C@@H](CCC(=O)O)C(=O)N[C@@H](Cc1ccccc1)C(=O)N[C@H](C(=O)N[C@@H](CCCCNC(=O)COCCOCCNC(=O)CC[C@H](NC(=O)COCCOCCNC(=O)CCCCCCCCCCCCC(=O)O)C(=O)O)C(=O)N[C@@](C)(Cc1ccc(O)cc1)C(=O)N[C@@H](CC(C)C)C(=O)N[C@H](C(=O)N[C@@H](CCCCNC(=O)COCCOCCNC(=O)CC[C@H](NC(=O)COCCOCCNC(=O)CCCCCCCCCCCCC(=O)O)C(=O)O)C(=O)NCC(=O)NCC(=O)N1CCC[C@H]1C(=O)N[C@@H](CO)C(=O)N[C@@H](CO)C(=O)NCC(=O)N[C@@H](C)C(=O)N1CCC[C@H]1C(=O)N1CCC[C@H]1C(=O)N1CCC[C@H]1C(=O)N[C@@H](CO)C(N)=O)[C@@H](C)CC)[C@@H](C)CC [Example 365]
Emax ([1]; HEK293, cAMP, 37° C., 0.1% bovine casein and 1.0% human serum albumin, percent of maximal response to GIP(1-42)NH2, read-out: hGIPR Emax, % ± SEM): 93.5% | Emax ([1]; HEK293, cAMP, 37° C., 0.1% bovine casein, percent of maximal response to GIP(1-42)NH2, arithmetic mean, read-out: hGIPR Emax, % ± SEM): 105% | EC50 ([1]; cAMP, 37° C., 0.1% bovine casein (no human serum albumin), read-out: hGIPR EC50, nM (SEM, n)): 0.00809 nM | EC50 ([2]; cAMP, 37° C., 0.1% bovine casein (no human serum albumin), geometric mean, read-out: hGCGR EC50, nM (SEM, n)): > 9950 nM | EC50 ([2]; cAMP, 37° C., 0.1% bovine casein and 1.0% human serum albumin, geometric mean (SEM, n), read-out: hGCGR EC50, nM (SEM, n)): > 9950 nM | Emax ([3]; HEK293, cAMP, 37° C., 0.1% bovine casein and 1.0% human serum albumin, percent of maximal response to GLP-1(7-36)NH2, read-out: hGLP-1R Emax, % ± SEM): 91% | Emax ([3]; HEK293, cAMP, 37° C., 0.1% bovine casein, percent of maximal response to GLP-1(7-36)NH2, arithmetic mean, read-out: hGLP-1R Emax, % ± SEM): 98.5% | EC50 ([3]; cAMP, 37° C., 0.1% bovine casein (no human serum albumin), read-out: hGLP-1R EC50, nM (SEM, n)): 0.362 nM

CC[C@H](C)[C@H](NC(=O)[C@H](CC(C)C)NC(=O)[C@](C)(Cc1ccc(O)cc1)NC(=O)[C@@H](CCC(=O)O)NC(=O)[C@@H](NC(=O)[C@H](Cc1ccccc1)NC(=O)[C@H](CCC(=O)O)NC(=O)C(C)(C)NC(=O)[C@H](CCC(N)=O)NC(=O)[C@H](C)NC(=O)[C@H](CCCCNC(=O)COCCOCCNC(=O)COCCOCCNC(=O)CCCCCCCCCCCCC(=O)O)NC(=O)[C@H](CCCN)NC(=O)[C@H](CC(=O)O)NC(=O)[C@H](CC(C)C)NC(=O)[C@](C)(CC(C)C)NC(=O)[C@@H](NC(=O)[C@H](CO)NC(=O)[C@H](Cc1ccncc1)NC(=O)[C@H](CC(=O)O)NC(=O)[C@H](CO)NC(=O)[C@@H](NC(=O)[C@](C)(Cc1ccccc1F)NC(=O)[C@@H](NC(=O)CNC(=O)[C@H](CCC(=O)O)NC(=O)C(C)(C)NC(=O)[C@@H](N)Cc1ccc(O)cc1)[C@@H](C)O)[C@@H](C)O)[C@@H](C)CC)[C@@H](C)CC)C(=O)N[C@@H](CCCCNC(=O)COCCOCCNC(=O)COCCOCCNC(=O)CCCCCCCCCCCCC(=O)O)C(=O)NCC(=O)NCC(=O)N1CCC[C@H]1C(=O)N[C@@H](CO)C(=O)N[C@@H](CO)C(=O)NCC(=O)N[C@@H](C)C(=O)N1CCC[C@H]1C(=O)N1CCC[C@H]1C(=O)N1CCC[C@H]1C(=O)N[C@@H](CO)C(N)=O [Example 210]
EC50 ([1]; 0.1% bovine casein and 1.0% human serum albumin, 37° C., read-out: hGIPR EC50, nM (SEM, n)): 0.44 nM | Emax ([1]; HEK293, 0.1% bovine casein and 1.0% human serum albumin, 37° C., percent of maximal response to GIP(1-42)NH2, read-out: hGIPR Emax, % ± SEM): 68.1% | Emax [1, 4]: 92.1% | EC50 ([2]; 0.1% bovine casein and 1.0% human serum albumin, 37° C., geometric mean, read-out: hGCGR EC50, nM (SEM, n)): > 9950 nM | EC50 [2, 5]: > 9950 nM | EC50 ([3]; 0.1% bovine casein and 1.0% human serum albumin, 37° C., read-out: hGLP-1R EC50, nM (SEM, n)): 8.86 nM

Reference: patent publication US20230265151A1, “GIP/GLP1 CO-AGONIST COMPOUNDS” (priority 2020, published 2023)
